From publication PMC7083565, “In vitro metabolism, reaction phenotyping, enzyme kinetics, CYP inhibition and induction potential of ataluren” (Pharmacology Research & Perspectives, 2020)
Read-outs that look alike come from different tables or passages of the source.

How the values were obtained:
[1] = Ataluren glucuronidation kinetics, human kidney microsomes; assay type: in vitro ADME; details: for CLint,u,UGT (scaled) / K m / K m, u / V max: HKM; for CLint,u,UGT (scaled): 12.8 mg protein/g tissue; for K m / K m, u / V max: mean ± SE; for K m / K m, u / V max / fraction unbound at 15 min: n = 3; for fraction unbound at 15 min / microsomal CLint: human, pH 7.5, HKM; for fraction unbound at 15 min: pooled human kidney microsomes incubation mixture, mean ± SD, read-out: fu,inc; for microsomal CLint: pooled human kidney microsomes, read-out: CLint,u,UGT
Description: (§1) Ataluren at 0.5, 2.5, 12.5, 25, 50, 100, 200, and 400 µmol/L, was incubated (n = 3) at 37°C with recombinant human UGT1A9 and with pooled microsomes from human liver, kidney, and intestine (0.025 mg protein/mL, preactivated with alamethicin at 20 µg/mL) in Tris‐HCl buffer (0.1 mol/L, pH 7.5), in the presence of 1 mmol/L EDTA, 5 mmol/L MgCl2, with or without 0.5%, 1%, or 2% BSA. The incubation (100 µL final volume with 0.5% DMSO) was started by adding an equal volume of UDPGA (5 mmol/L) in Tris‐HCl buffer (0.1 mol/L, pH 7.5). After 30 minutes incubation, the incubation mixtures were combined with 0.3 mL of an internal standard solution in acetonitrile with 1% formic acid, followed by membrane plate filtration. The filtrates were used for LC‐MS/MS analysis to quantify the formation of ataluren‐O‐1β‐acyl glucuronide. Detailed LC‐MS/MS conditions are summarized in LC‐MS/MS Analysis section. Ataluren acyl glucuronide formation rate after 30 minutes incubation was calculated using the amount of metabolite formed (pmol) divided by the protein amount in the incubation sample (0.0025 mg) and the incubation time (30 minutes). Ataluren glucuronidation kinetic parameters were determined with and without adjusting BSA binding by nonlinear regression (GraphPad Prism, 5version 5.04, GraphPad Software, Inc.) using Michaelis‐Menten equation which was the best fit compared with other models. The intrinsic clearance was calculated as CLint = Vmax/Km. In order to compare unbound intrinsic clearance by glucuronidation (CLint,u,UGT) in different tissues, CLint,u,UGT was expressed per gram of tissue by correcting the values for the microsomal protein yield, resulting in scaled CLint,u,UGT. Microsomal protein yields of 40.0, 12.8, and 20.6 mg protein/g tissue were used for hepatic, renal, and intestinal data, respectively. ^26
(§2) The high‐throughput membrane ultrafiltration method ^27 was used to determine the fraction unbound in the incubation (n = 3). Incubation mixtures and procedures were essentially the same as the above except that UDPGA (5 mmol/L) was replaced with Tris‐HCl buffer (0.1 mol/L, pH 7.5). After 15 minutes incubation, aliquot was transferred to a Millipore Multiscreen Ultracel‐10 filter plate (10 kDa molecular mass cut off; EMD Millipore). The plate was centrifuged at 37°C and 3710 g. After 30 minutes centrifugation, aliquots of ultrafiltrates and incubation mixtures prior to ultrafiltration were quenched with an internal standard solution in acetonitrile, followed by membrane plate filtration. The filtrates were used for LC‐MS/MS analysis to quantify the concentration of ataluren. The same LC‐MS/MS conditions described above are summarized in LC‐MS/MS Analysis section. The free fraction = Cu/Cm, where Cu is the concentration of ataluren in the ultrafiltrate and Cm is the concentration of ataluren in the incubation system before centrifugation. Unbound Km (Km, u) was recalculated by applying Michaelis‐Menten equation using free ataluren concentrations after correcting BSA binding at each ataluren and BSA concentration level.
(§3) Quantification of ataluren‐O‐1β‐acyl glucuronide formation was conducted on an Accela pump and a PAL autosampler equipped with a TSQ Quantum Ultra mass spectrometer (Thermo Fisher Scientific). A Waters Acquity BEH column (C18, 1.7 µm, 50 × 2.1 mm; Waters Cooperation) was used and maintained at 50°C. The mobile phases were 0.1% formic acid in water (A) and acetonitrile (B). The flow rate was 0.6 mL/min and gradient program was as follows: linear gradient from 0% B to 95% B in 0.5 minutes and hold isocratic at 95% B for 1 minute; linear gradient from 95% B to 0% B in 0.1 minutes and hold isocratic at 0% B for 0.4 minutes. TSQ Quantum Ultra mass spectrometer was equipped with a heated electrospray ionization source operated in negative‐ion mode with a vaporizer temperature of 350°C, capillary temperature of 380°C, and spray voltage of 3 kV. […]

UGT (glucuronidation) = assay: as above; assay type: in vitro ADME; details: human, pooled human kidney microsomes, pH 7.5, HKM, 0% BSA; read-out: CLint,u,UGT
Description: as §1, §2, §3

O=C(O)c1cccc(-c2noc(-c3ccccc3F)n2)c1 [ataluren, Ataluren]
human kidney microsomes more active than human liver microsomes in ataluren glucuronidation, in terms of CLint,u/mg protein ([1]; HKM vs HLM): about 3.7 fold
CLint,u,UGT (scaled) ([1]; 0% BSA): 4.15 mL/min/g of tissue
K m ([1]; 0% BSA): 10.8 ± 1.40 µM
K m, u ([1]; 0% BSA): 10.8 ± 1.40 µM
V max ([1]; 0% BSA): 3948 ± 90.3 pmol/min/mg
CLint,u,UGT (scaled) ([1]; 0.5% BSA): 12.18 mL/min/g of tissue
K m ([1]; 0.5% BSA): 33.0 ± 7.36 µM
K m, u ([1]; 0.5% BSA): 3.09 ± 0.671 µM
V max ([1]; 0.5% BSA): 2941 ± 168 pmol/min/mg
CLint,u,UGT (scaled) ([1]; 1% BSA): 20.0 mL/min/g of tissue
K m ([1]; 1% BSA): 36.5 ± 6.31 µM
K m, u ([1]; 1% BSA): 1.64 ± 0.334 µM
V max ([1]; 1% BSA): 2563 ± 137 pmol/min/mg
CLint,u,UGT (scaled) ([1]; 2% BSA): 16.5 mL/min/g of tissue
K m ([1]; 2% BSA): 74.1 ± 8.38 µM
K m, u ([1]; 2% BSA): 1.82 ± 0.291 µM
V max ([1]; 2% BSA): 2342 ± 119 pmol/min/mg
maximal effect of BSA on CLint,u (increase) ([1]; human kidney microsomes, with vs without BSA): ~4.8 fold
fraction unbound at 15 min ([1]; 0% BSA): 1 ± 0.121
fraction unbound at 15 min ([1]; 0.5% BSA): 0.095 ± 0.003
fraction unbound at 15 min ([1]; 1% BSA): 0.05 ± 0.002
fraction unbound at 15 min ([1]; 2% BSA): 0.03 ± 0.003
microsomal CLint ([1]; 0.5% BSA): 952 µL/min/mg
microsomal CLint ([1]; 1% BSA): 1560 µL/min/mg
microsomal CLint ([1]; 2% BSA): 1290 µL/min/mg
microsomal CLint (UGT (glucuronidation)): 324 µL/min/mg
